Data reported in paper PMC9935382, “Sorting nexin-dependent therapeutic targeting of oncogenic epidermal growth factor receptor” (Cancer Gene Therapy, 2022).
“Also recorded” adds a separate entry of the source.

Columns and labels:
[1] = system: CHO cells; assay: MTT cell viability, CHO; format: cell-based, Chinese hamster; settings: CHO cells lack EGFR expression, 3 days
Procedure: (§1) 2 × 10^3 cells were plated per well in a 96 well plate and left to adhere overnight. The following day, drug treatments were started and continued for 3 days. To measure the viability of the remaining cell population, 10% 3-(4,5-dimethylthiazol-2-yl)-2,5-diphenyltetrazolium (MTT) in media was added and incubated for 2 hours and conversion of MTT to formazan at 540 nm using a biotech Synergy LX plate reader.
(§2) A–G Cells were plated in a 96-well plate at 2000 cells per well. […] Cell viability was then measured with an MTT assay, viability of treated cells were compared with the vehicle control. H MDA-MB-468 cells were plated and incubated+/− IPTG for 2 days prior to drug treatment to induce expression of an EGFR-targeted shRNA.
Supplementary Figure 1. A. BT20 triple negative breast cancer cells were treated with SNX1.1, 1.2, or 1.3 for 3 days and their viability was measured via MTT analysis. B. CHO cells were treated with PTD4 or SNX1.3 for 3 days and their viability was measured via MTT analysis.

[2] = system: MCF10A cells; assay: MTT cell viability, MCF10A; format: cell-based; settings: immortalized breast epithelial line, 3 days
Procedure: as §1, §2

[3] = system: T47D cells; settings: previously characterized; no reference given; cited from earlier work
[4] = system: MDA-MB-231 cells; settings: previously characterized; no reference given; cited from earlier work
[5] = biological target: EGFR kinase domain protein (EGFRkin), residues 672-998 with N-terminal His-tag (human); assay: MST; His-EGFRkin (50 nM) labelled through the His-tag with RED-tris-NTA 2nd Generation dye; SNX peptides or SNX-BAR protein titrated, 16 1:1 serial dilutions from 20 uM in PBS-T; room temperature; Monolith NT.115 pico
[6] = biological target: T1, EGFR kinase domain (residues 672–998) (Homo sapiens, UniProt P00533); assay: Microscale thermophoresis (MST) binding to EGFRkin; settings: MST, His-EGFRkin 50 nM (RED-tris-NTA dye) titrated with ligand, 16 1:1 serial dilutions from 20 μM, PBS-T, room temperature
T1 construct: baculovirus insect cell expression system (residues 672–998 with N-terminal His-tag followed by TEV cleavage site); made in house; host or cells: Sf9 insect cells (Bac-to-Bac baculovirus, pFastBacHT)
Procedure: Briefly pFastBacHT plasmid containing the cDNA of EGFR kinase domain with N-terminal His-tag was transformed into DH10Bac E. coli to generate bacmid DNA. P1 virus was generated by transfecting 2.0 mL of sf9 cells at 1.0 million cells/ml density with the purified bacmid DNA (200–3000 ng/μL). The P1 virus was harvested after 5–7 days following transfection. The P1 virus was diluted 100-fold into an sf9 cell culture at a density of 2.0 million cells/ml and cultured for 3 days. Supernatant containing the P2 virus was collected by centrifugation and diluted 40-fold into 1.0 L of sf9 cells at a density of 2.0 million cells/ml. After 2.5–3 days, cell pellets were harvested by centrifugation at 3500 x g at 4 °C for 20 min, and flash frozen in liquid nitrogen prior to storage at −80 °C.
To purify the EGFR kinase domain, Sf9 cell pellets (~10 g) was thawed on ice and homogenized with 2 passages on an EmulsiFlex-C5 (Avestin) in 50 mL of lysis buffer (50 mM Tris pH 7.5, 600 mM NaCl, 1 mM EDTA, 1 mM TCEP, protease inhibitors, DNAase, and 10% Glycerol). The lysate was centrifugated and supernatant was collected and loaded onto a 1.0 mL HisTrap FF column (GE) at a flow rate of 1.0 ml/min. Following loading, the column was washed with 20 column volumes of wash buffer (50 mM Tris pH 7.5, 600 mM NaCl, 20 mM Imidazole, 1 mM TCEP, and 10% Glycerol) and eluted with a linear gradient of elution buffers containing 20 and 300 mM imidazole. Fractions containing the EGFR kinase domain proteins were combined and concentrated to less than 1.0 mL. The concentrated proteins were loaded onto a Superdex 200 10/300 GL column (GE) equilibrated in buffer (20 mM Tris pH 7.5, 100 mM NaCl) for further purification. The purified proteins were concentrated, flash frozen in liquid nitrogen, and stored at −80 °C.
MST experiments were carried out using a Monolith NT.115 pico instrument (NanoTemper Technologies, Munich Germany). […] Kd values were derived from the concentration-dependent changes in normalized fluorescence (Fnorm). Data were analyzed using NanoTemper MO. […]

With `CNC(=O)CN1CCC(Oc2cc3c(Nc4cccc(Cl)c4F)ncnc3cc2OC)CC1` [Sapitinib] the “impact on cell viability / growth” value [1] was “more effective at inhibiting cell growth in immortalized cells than in cancer cells” and the “impact on cell viability / growth” value [2] was “more effective at inhibiting cell growth in immortalized cells than in cancer cells; also recorded: significantly reduces viability of normal cells”.

For `C#Cc1cccc(Nc2ncnc3cc(OCCOC)c(OCCOC)cc23)c1` [erlotinib], the resistance to erlotinib [3] is listed as “resistant” and the resistance to erlotinib [4] is listed as “resistant”.

“human SNX-BAR protein (SNX1 BAR domain, residues 301-522) (from UniProt Q13596 301-522) (domain or fragment)” showed a Kd [5] of 3000 nM.

B1: BAR domain: human SNX1 BAR domain, residues 301–522, expressed in E. coli (protein)
chain: KMNESDIWFEEKLQEVECEEQRLRKLHAVVETLVNHRKELALNTAQFAKSLAMLGSSEDNTALSRALSQLAEVEEKIEQLHQEQANNDFFLLAELLSDYIRLLAIVRAAFDQRMKTWQRWQDAQATLQKKREAEARLLWANKPDKLQQAKDEILEWESRVTQYERDFERISTVVRKEVIRFEKEKSKDFKNHVIKYLETLLYSQQQLAKYWEAFLPEAKAIS
modifications: left off: MBP, N-terminal, cleaved
notes: human SNX1 BAR domain, residues 301–522, expressed in E. coli
B1 showed a Kd [6] of 3000 nM and a Kd ([6]; listed as SNX1 Bar) of 2900 ± 1700 nM.
